The text below walks through data of patent publication US7226741B2, “Multimerization of HIV-1 Vif protein as a therapeutic target” (priority 2001, dated 2007).

The experiment has as its target T1, HIV-1 Vif protein (Vif-Vif interaction) (Human immunodeficiency virus type 1 group M subtype B, UniProt P12504).
T1 construct: The vif gene also was inserted into pGEX vector for in vitro expression and isolation of GST-Vif fusion protein; The PCR-generated wild-type vif gene and its mutants were then inserted into pCITE-4a vector; made in house; host or cells: GST-Vif: E. coli BL21 (pGEX); 35S-Vif: in vitro translation from pCITE-4a (Novagen kit)
The experiment is classed as binding. To be noted: for 35S-Vif binds with GST-Vif (%) Mean ± SD: peptide added to the Vif-Vif binding reaction, no peptide (GST pull-down) designated as 100%; for Inhibition of Vif-Vif interaction (in words): synthesized peptides added into the reaction system for Vif-Vif binding, in vitro. The procedure:
The vector pGEX, with or without the vif gene, was transformed into BL21 competent cells (Novagen, Madison, Wis.). After growth at 37° C. to approximately 0.6 O.D., the expression of GST or GST-Vif proteins was induced by 0.4 mM isopropylthio-β-D-galactoside (IPTG). The bacterial cells were lyzed by adding lysing buffer (1% Triton-X-100, 0.1 mg/ml lysozyme, 2 mM EDTA, 1 mM PMSF, 2 μg/ml leupeptin, and 1 μg/ml aprotinin), followed by sonication. The sample was pelleted at 12,000 g for 10 min at 4° C., and the supernatant was applied to a glutathione-conjugated agarose bead (Sigma, St. Louis, Mo.) column. After batch binding, the matrix was washed three times, each time by the addition of 10 bed volumes of phosphorus-buffer saline (PBS). The GST or GST-Vif conjugated agarose beads were then aliquoted and stored at −20° C. Conversely, ^35S-labeled Vif or its mutant proteins were synthesized utilizing SPT3 kits (Novagen, Madison, Wis.). The protocol supplied by the manufacturer was followed. After in vitro translation, RNase A (0.2 mg/ml) was added to stop the reaction and remove tRNAs and the in vitro transcribed mRNA. The trichloroacetic acid (TCA)-insoluble radioactive amino acids were quantitated in the presence of a scintillation cocktail.
For GST pull-down assays, a GST or GST-Vif conjugated bead slurry was mixed with ^35S-labeled Vif or its mutants (50,000 cpm) in a binding buffer [150 mM NaCl, 20 mM Tris-HCl (pH 7.5), 0.1% Triton-X-100]. After binding at 4° C. for 1 hour, the mixture was centrifuged at 3,000 g for 1 min, and the beads were washed three times with binding buffer. The ^35S-labeled Vif proteins were dissociated from the beads by adding SDS-containing loading buffer and heating at 95° C. for 5 minutes. The samples were then electrophoresized in SDS-PAGE gels (15% Tris-HCl ready gel made by Bio-Rad, Hercules, Calif.). After treatment with the fixing buffer (10% acetic acid, 10% methanol) and then the Amplify (Amersham-Pharmacia, Piscataway, N.J.), the gels were dried and exposed to X-ray film or quantitatively analyzed utilizing phosphor image (Molecular Dynamics, Sunnyview, Calif.).
A Vif-Vif binding assay was similar to the GST pull-down assays, except that the GST or GST-Vif conjugated bead slurry was mixed with ^35S-labeled Vif and the test peptides or molecules in the binding buffer. The results were compared to that from the GST pull-down assay, which was designated as 100%.

T1 sequence (P12504 whole entry, the tested form may be a part): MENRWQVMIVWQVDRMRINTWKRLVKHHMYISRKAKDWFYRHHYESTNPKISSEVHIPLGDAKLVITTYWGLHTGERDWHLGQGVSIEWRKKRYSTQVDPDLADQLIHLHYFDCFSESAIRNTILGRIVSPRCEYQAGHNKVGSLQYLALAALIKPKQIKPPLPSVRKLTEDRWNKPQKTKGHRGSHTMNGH

As to ESAIRKAILGHIVSP [Vif117-131], the “35S-Vif binds with GST-Vif (%) Mean ± SD” value is 94.5 ± 11.2%.

In the case of KKIKPPLPSVTKLTE [Vif157-171], the “35S-Vif binds with GST-Vif (%) Mean ± SD” value worked out at 49.2 ± 2.5% and the “Inhibition of Vif-Vif interaction (in words)” value (shortened to “Inhibition”) was “able to inhibit the Vif-Vif interaction”.

KPKKIKPPLPSV [Vif155-166]: the “35S-Vif binds with GST-Vif (%) Mean ± SD” value was found to be 57.1 ± 8.7% and the “Inhibition” value was “able to inhibit the Vif-Vif interaction”.

For the sequence LPLPAPSFHRTT [VMI9], the “35S-Vif binds with GST-Vif (%) Mean ± SD” value is given as 22.0 + 6.2% and the “Inhibition” value was “significantly inhibit Vif-Vif interaction”.

As to PPLPSVTKLTEDRWN [Vif161-175], the “35S-Vif binds with GST-Vif (%) Mean ± SD” value is 70.2 ± 5.5% and the “Inhibition” value is “able to inhibit the Vif-Vif interaction”.

For SNQGGSPLPRSV [VMI7], the “35S-Vif binds with GST-Vif (%) Mean ± SD” value worked out at 19.0 ± 2.2% and the “Inhibition” value is “significantly inhibit Vif-Vif interaction”.

As to “SVSVGMKPSPRP (Synthetic peptide containing PXP motif) [VMI5, 12-mer peptide containing a PXP motif]”, the “35S-Vif binds with GST-Vif (%) Mean ± SD” value amounted to 36.3 ± 5.1%.
